Tested on: hydrozoas
Test: Experimental Example 1: effect of antifouling agent for a fishnet, nets immersed in the sea off Konbumori in Hokkaido
Type: in vivo
Conditions: conclusion from Table 3
Excerpt: The antifouling agents for […] shown in Examples 3-10 and Comparative Examples 1 and 2 were respectively applied to Tetoron unknotted nets (1000/26, 3 sun mesh) by immersion and air-dried. The nets were retained at about 15 meters underwater in the sea off Konbumori in Hokkaido for 4 months from August 1995. The adhesion organisms were mostly hydrozoas. As Comparative Example 3, the evaluation results without a treatment with an antifouling agent for a […] shown. • Evaluation A: Area of fouling of […], 0%, no adhesion organisms. • Evaluation B: Area of fouling of […], 0-10%, small amount of adhesion organisms to the extent practically acceptable. • Evaluation C: Area of fouling of […], 10-50%, great amount of adhesion organisms, unpractical as a […]. • Evaluation D: Area of fouling of […], 50% or more, markedly greater amount of adhesion organisms.

## triphenylborane-dehydroabiethylamine adduct [Example 1]
  antifouling effect against coelenterates such as hydrozoas and obelia (in words): extremely strong, long-lasting and practical antifouling effect
